Data on 4 compounds can be found in ChEMBL document CHEMBL1201862, “PubChem BioAssay data set” (2004).

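All cell lines were grown in 96-well plates and treated with compound for 48 hours. GI50 is the concentration that inhibits growth by half.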 Calls of active or inactive are those of the source. No stated cut-off is given here; in the data, active = GI50 up to about 1.1 µM and inactive = higher.

What all share (test): NCI tumour cell line growth inhibition, 48 h
Test [1] deals with CAKI-1.
Test [2] deals with 786-0.
Test [3] has as its system MDA-N.
Test [4] relates to LOX IMVI.
The subject of test [5] is SN12C.
Test [6] has as its system TK-10.
Test [7] concerns K562.
Test [8] deals with UO-31.
The subject of test [9] is NCI-H522.
Test [10] has as its system RXF 393.
The subject of test [11] is NCI/ADR-RES.
The test system of test [12] is UACC-62.
Test [13] relates to HCT-116.
Test [14] relates to HOP-62.
The test system of test [15] is M14.
In test [16] the test system is A549.
For test [17], the system named is IGROV-1.
Test [18] has as its system A498.
In test [19] the test system is CCRF-CEM.
In test [20] the test system is SF-539.

In the case of `CN(C)CCNc1ccccn1`, the GI50 in test [1], in test [2], in test [3], in test [4], in [5] and in test [6] was > 100 µM (inactive) each time. The GI50 in test [7], in test [8], in test [9], in [10], in test [11] and in test [12] was > 100 µM (inactive) each time. The GI50 in test [13], in test [14], in test [15], in test [16], in test [17] and in test [18] was > 100 µM (inactive) each time.
`CNC(=O)CCCNC(=O)CCCC(=O)N(C)C`: the GI50 in test [19], in test [1], in test [2], in [3], in test [4] and in test [5] was > 100 µM (inactive) each time. Further, the GI50 in test [6], in [7], in test [8], in [9], in test [20] and in test [11] was > 100 µM (inactive) in each case. Besides, the GI50 in [12], in test [13], in [14], in test [15], in test [16] and in [17] was > 100 µM (inactive) each time. The GI50 in [18] is > 100 µM (inactive).
Consider `COC(=O)[C@H]1ON2O[C@H](OC3CCCC[C@@H]3c3ccccc3)C[C@@H]3CC[C@H]1[C@@]32C` (some centres undefined), for which the GI50 in [19] was > 100 µM (inactive); in [1] it was > 100 µM (inactive); in test [2], > 100 µM (inactive); in test [3], > 100 µM (inactive); in test [4], > 100 µM (inactive); in [5], 31.6 µM (inactive). Also, the GI50 is > 100 µM (inactive) in test [6]; > 100 µM (inactive) in test [7]; 97.3 µM (inactive) in [8]; 45.9 µM (inactive) in [9]; 45.9 µM (inactive) in [10]; > 100 µM (inactive) in [11]. Moreover, the GI50 was > 100 µM (inactive) in [12]; 79.1 µM (inactive) in test [13]; > 100 µM (inactive) in test [14]; > 100 µM (inactive) in [15]; 60.3 µM (inactive) in test [16]; > 100 µM (inactive) in test [17]. Further, in test [18], the GI50 is > 100 µM (inactive).
For the compound `C=CC(C)(C)n1cc(C2=C(O)C(=O)C(c3cn(C(C)(C)C=C)c4ccccc34)=C(OC(C)=O)C2=O)c2ccccc21`, the GI50 in test [19] was 0.435 µM (active); in [1], 1.08 µM (active); in test [2] it was 1.47 µM (inactive); in test [3] it was 0.662 µM (active); in [4] it was 0.508 µM (active); in [5], 0.456 µM (active). Further, the GI50 in test [7] is 0.424 µM (active); in [8], 1.07 µM (active); in test [9], 1.55 µM (inactive); in test [10], 0.929 µM (active); in [11], 1.64 µM (inactive); in [12], 0.571 µM (active). In addition, the GI50 in test [13] is 0.429 µM (active); in test [14], 0.628 µM (active); in [15], 1.25 µM (inactive); in test [16], 0.426 µM (active); in test [17], 0.435 µM (active); in [18], 0.853 µM (active).
